Results taken from patent US6509335B1, “Benzoxazinoes/benzothiazinones as serine protease inhibitors” (Warner-Lambert Company, priority 1998, dated 2003).

Assays:
pooled plasma from dogs = test: In vitro diluted prothrombin time (dPT) assay, dog plasma; conditions: for concentration that causes 2-fold prolongation of baseline dPT: 2X; for concentration that causes 5-fold prolongation of baseline dPT: 5X; for concentration that causes 10-fold prolongation of baseline dPT: 10X
Experimental: (§1) Rat, rabbit, dog, and human blood (typically 1.8 mL) was collected and added to a sodium citrate solution (3.8%) to afford a 1:10 dilution. After centrifugation (2000 g for 10 minutes), the blood plasma was stored at −70° C. to 0° C. […] […] Fibrin formation and the time required for a clot to form were determined using an automated ST4 Clot Detection System in duplicate.

[1] = system: pooled plasma from rabbits; test: In vitro diluted prothrombin time (dPT) assay, rabbit plasma; conditions: for concentration that causes 2-fold prolongation of baseline dPT: 2X; for concentration that causes 5-fold prolongation of baseline dPT: 5X; for concentration that causes 10-fold prolongation of baseline dPT: 10X
Experimental: as §1

[2] = system: pooled plasma from human volunteers; test: In vitro diluted prothrombin time (dPT) assay, human plasma; conditions: for concentration that causes 2-fold prolongation of baseline dPT: 2X; for concentration that causes 5-fold prolongation of baseline dPT: 5X; for concentration that causes 10-fold prolongation of baseline dPT: 10X
Experimental: as §1

human thrombin = target: T1, human thrombin (Homo sapiens, UniProt P00734); test: Determination of thrombin IC50 (chromogenic substrate Chromozym TH); assay type: biochemical
T1 construct: regulates the generation of thrombin from its zymogen prothrombin; purchased Enzyme Research Laboratories
Experimental: The ability of compounds to act as inhibitors of human thrombin catalytic activity is assessed by determination of that concentration of test substance that inhibits by 50% (IC50) the ability of human thrombin to cleave the chromogenic substrate Chromozym TH (Tosyl-Gly-Pro-Arg-pNA*Ac, Boehringer Mannheim). Typically, 145 μL human thrombin (0.75 nM, Enzyme Research Laboratories) in a HPB buffer (10 mM HEPES, 100 mM NaCl, 0.05% BSA, 0.1% PEG-8000, pH 7.4) and 5 μL of test substance in DMSO (2% final) are incubated for 60 minutes at room temperature. Following preheating to 37° C. for 5 minutes, to this mixture is added 100 μL of Chromozym TH (24 μM final) in HPB buffer. The velocity of Chromozym TH hydrolysis is determined at 37° C. by measuring the initial rate of change of the optical density at OD 405 nm every 10 seconds for 5 minutes using a ThermoMax® Kinetic Microplate Reader.

human factor Xa [3] = target: T2, human factor Xa (Homo sapiens, UniProt P00742); test: Determination of factor Xa IC50 (chromogenic substrate S2765); assay type: biochemical
T2 construct: human factor Xa (1 nM final, Enzyme Research Laboratories); purchased Enzyme Research Laboratories
Experimental: The ability of compounds to act as inhibitors of human factor Xa catalytic activity is assessed by determination of that concentration of test substance that inhibits by 50% (IC50) the ability of human factor Xa to cleave the chromogenic substrate S2765 (N-CBz-D-Arg-L-Gly-L-Arg-p-nitroanilide. 2HCl, DiaPharma). Typically, 145 μL human factor Xa (1 nM final, Enzyme Research Laboratories) in 10 mM HEPES, 150 mM NaCl, 0.1% BSA, pH 7.4 (HBSA buffer), and 5 μL of test substance in DMSO (2% final) are incubated for 60 minutes at room temperature. Following preheating to 37° C. for 5 minutes, to this mixture is added 100 μL of S2765 (400 μM final) in HBSA buffer. The velocity of S2765 hydrolysis is determined at 37° C. by measuring the initial rate of change of the optical density at OD405 nm every 10 seconds for 5 minutes using a ThermoMax® Kinetic Microplate Reader.

human trypsin = test: Determination of trypsin IC50 (chromogenic substrate S2222); assay type: biochemical
Experimental: The ability of compounds to act as inhibitors of human trypsin catalytic activity is assessed by determination of that concentration of test substance that inhibits by 50% (IC50) the ability of human trypsin to cleave the chromogenic substrate S2222 (N-Bz-L-Ile-L-Glu-L-Gly-L-Arg-p-nitroanilide. HCl, DiaPharma). Typically, 145 μL human trypsin (0.5 nM final) in 10 mM HEPES, 150 mM NaCl, 0.1% BSA, and 5 μL of the test substance in DMSO (2% final) are incubated for 60 minutes at room temperature. Following preheating to 37° C. for 5 minutes, to this mixture is added 100 μL of S2222 in HBSA buffer (100 μM final), and the velocity of S2222 hydrolysis is determined at 37° C. by measuring the optical density at OD 405 nm every 10 seconds over 5 minutes using a ThermoMax® Kinetic Microplate Reader.

[4] = target: T3, human tissue factor/factor VIIa complex (Homo sapiens, UniProt P08709); test: Determination of tissue factor/factor VIIa inhibition (Spectrozyme VIIa); assay type: biochemical; conditions: read-out: VIIa % inhib. @ 100 μM
T3 construct: 50 μL human factor VIIa (Enzyme Research Laboratories); purchased Enzyme Research Laboratories (factor VIIa); American Diagnostica (tissue factor)
Experimental: The ability of compounds to act as inhibitors of the catalytic activity of human tissue factor/factor VIIa complex is assessed by determination of that concentration of test substance that inhibits by 50% (IC50 the ability of a complex of human recombinant tissue factor/factor VIIa to cleave the chromogenic substrate Spectrozyme VIIa (CH3SO2-D-CHA-Arg-pNA*AcOH, American Diagnostica). Typically, 50 μL human factor VIIa (Enzyme Research Laboratories) is incubated for 10 minutes as a 1:1 mixture (5 nM final each) with 95 μL recombinant human tissue factor (American Diagnostica) in a modified HBSA buffer (10 mM Hepes, 5 mM CaCl2, 0.1% BSA, pH 8.0). Then 5 μL of the test substance in DMSO (2% final) is added and incubated for 60 minutes at room temperature. Following preheating to 37° C. for 5 minutes, to this mixture is added 100 μL of Spectrozyme VIIa (500 μM final) in modified HBSA, and the velocity of Spectrozyme VIIa hydrolysis is determined at 37° C. by measuring the optical density at an OD405 nm every 10 seconds over 5 minutes using a ThermoMax® Kinetic Microplate Reader.

human factor Xa [5] = target: T2, human factor Xa; test: Determination of factor Xa Ki (fluorogenic S2765); assay type: biochemical
Experimental: Compounds of the present invention may be prepared for assay by dissolving them in buffer to give solutions ranging in concentrations from 1 to 100 μM. In an assay to determine the inhibitory dissociation constant, Ki, for a given compound, a chromogenic or fluorogenic substrate of factor Xa would be added to a solution containing a test compound and factor Xa; the resulting catalytic activity of the enzyme is spectrophotometrically determined. This assay is well-known to those skilled in the art and is commonly used to determine antithrombotic activity.
For Ki determinations, the assay conditions were essentially the same as above except for the following. The concentration of factor Xa was 50 pM, and that of the substrate, in this case a fluorogenic S2765 (i.e. S2765 with AMC tag instead of pNA, California Peptide Research), was over the range of 10 to 500 μM. The test compound and substrate in HBSA buffer were incubated as above, and the reaction was initiated with enzyme-buffer. The data (steady-state velocity at various concentrations of the substrate and the inhibitors) of the competitive inhibition was analyzed using the methods described by Segel (Enzyme Kinetics, Wiley Interscience Publications, 1993). […]

[6] = target: T4, human prothrombinase (PTase) complex (Homo sapiens, UniProt P00742); test: In vitro assay for human prothrombinase; assay type: biochemical; conditions: PTase activity expressed by thrombin activity
T4 construct: 2.5 pM human factor Xa (Enzyme Research Laboratories); purchased Enzyme Research Laboratories
Experimental: For determination of IC50 (PTase) of the compounds of the invention, PTase activity was expressed by thrombin activity.
PTase reaction was performed in 100 μL of mixture containing PTase (20 μM) PCPS (Avanti Polar Lipids following a procedure modified from Barenholz et al., Biochemistry, 1977;16:2806-2810) in a 30:70 ratio, 2.5 nM human factor Va (Enzyme Research Laboratories) and 2.5 pM human factor Xa (Enzyme Research Laboratories) in modified HEPES buffer (10 mM Hepes, 150 mM NaCl, 0.1% PEG-8000, 0.05% BSA, 2.5 mM CaCl2, pH 7.4), 3 μM human prothrombin (Enzyme Research Laboratories) and varied concentrations of the test compounds (1 nM to 100 μM in DMSO, 2% final). Reaction was started by co-incubating PTase with test compound for 60 minutes at room temperature, followed by addition of prothrombin for 6 minutes at room temperature. Next, the reaction was quenched by the addition of 100 μL of 20 mM EDTA. Activity of the thrombin (product) is then measured in the presence of 50 μL S2238 (250 μM final, H-D-Phe-Pip-Arg-pNA*Ac, DiaPharma) as substrate by measuring the change at 37° C. in OD405 nm for 5 minutes at 10 second intervals using a ThermoMax® Kinetic Microplate Reader.

rabbit = test: Rabbit veno-venous shunt model of thrombosis; assay type: in vivo
Experimental: In that model, a plastic shunt which contains cotton thread was inserted into abdominal vena cava and thrombus developed inside the shunt under control conditions. The end points of the experiment are the time to occlusion (TTO) and thrombus weight. […] Three doses have been tested in a total of 15 rabbits (5 rabbits in each group): 30 μg/kg+1 μg/kg/min, 60 μg/kg+2 μg/kg/min, and 90 μg/kg+3 μg/kg/min. […] The net thrombus weight was reduced from 56.4±4.3 to 21.3±7.8 mg in that group.

[7] = 30 μg/kg+1, 60 μg/kg+2, 90 μg/kg+3 μg/kg/min
[8] = highest dose 90 μg/kg+3 μg/kg/min

T2 sequence (P00742 235-488 limits assumed): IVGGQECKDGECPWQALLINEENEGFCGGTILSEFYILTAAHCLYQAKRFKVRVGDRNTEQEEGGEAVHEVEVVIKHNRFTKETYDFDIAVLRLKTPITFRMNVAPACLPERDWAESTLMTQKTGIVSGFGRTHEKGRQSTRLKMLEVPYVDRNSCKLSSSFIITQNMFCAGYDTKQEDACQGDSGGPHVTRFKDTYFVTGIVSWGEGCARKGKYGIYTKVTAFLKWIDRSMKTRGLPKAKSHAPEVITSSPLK
T2 sequence (P00742 41-179 limits assumed): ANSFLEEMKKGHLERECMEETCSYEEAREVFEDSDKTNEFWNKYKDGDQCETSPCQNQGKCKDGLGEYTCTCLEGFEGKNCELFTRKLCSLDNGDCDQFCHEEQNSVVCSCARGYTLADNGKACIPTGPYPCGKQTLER
T3 sequence (P08709 213-466 limits assumed): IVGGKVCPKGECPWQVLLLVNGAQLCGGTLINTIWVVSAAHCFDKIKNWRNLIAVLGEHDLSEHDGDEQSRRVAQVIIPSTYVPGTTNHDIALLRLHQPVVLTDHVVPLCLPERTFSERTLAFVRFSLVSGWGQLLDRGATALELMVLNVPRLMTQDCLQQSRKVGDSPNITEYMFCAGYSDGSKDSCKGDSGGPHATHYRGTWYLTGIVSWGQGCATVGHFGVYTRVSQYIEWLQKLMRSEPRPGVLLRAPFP
T3 sequence (P08709 61-212 limits assumed): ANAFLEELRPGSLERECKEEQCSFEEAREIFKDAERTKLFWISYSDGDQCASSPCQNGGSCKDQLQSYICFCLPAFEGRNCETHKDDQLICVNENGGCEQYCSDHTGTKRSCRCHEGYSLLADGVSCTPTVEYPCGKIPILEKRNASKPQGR
T3 sequence (P13726 33-295 partner): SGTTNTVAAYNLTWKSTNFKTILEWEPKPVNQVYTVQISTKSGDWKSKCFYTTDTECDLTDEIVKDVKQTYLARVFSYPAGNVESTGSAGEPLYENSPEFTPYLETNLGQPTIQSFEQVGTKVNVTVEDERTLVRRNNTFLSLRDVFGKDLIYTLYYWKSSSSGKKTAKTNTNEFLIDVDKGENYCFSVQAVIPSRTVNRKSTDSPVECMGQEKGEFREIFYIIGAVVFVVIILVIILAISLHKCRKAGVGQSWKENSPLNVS
T4 sequence (P00742 235-488 limits assumed): as the sequence (P00742 235-488 limits assumed) above
T4 sequence (P00742 41-179 limits assumed): as the sequence (P00742 41-179 limits assumed) above
T4 sequence (P12259 29-737 partner limits assumed): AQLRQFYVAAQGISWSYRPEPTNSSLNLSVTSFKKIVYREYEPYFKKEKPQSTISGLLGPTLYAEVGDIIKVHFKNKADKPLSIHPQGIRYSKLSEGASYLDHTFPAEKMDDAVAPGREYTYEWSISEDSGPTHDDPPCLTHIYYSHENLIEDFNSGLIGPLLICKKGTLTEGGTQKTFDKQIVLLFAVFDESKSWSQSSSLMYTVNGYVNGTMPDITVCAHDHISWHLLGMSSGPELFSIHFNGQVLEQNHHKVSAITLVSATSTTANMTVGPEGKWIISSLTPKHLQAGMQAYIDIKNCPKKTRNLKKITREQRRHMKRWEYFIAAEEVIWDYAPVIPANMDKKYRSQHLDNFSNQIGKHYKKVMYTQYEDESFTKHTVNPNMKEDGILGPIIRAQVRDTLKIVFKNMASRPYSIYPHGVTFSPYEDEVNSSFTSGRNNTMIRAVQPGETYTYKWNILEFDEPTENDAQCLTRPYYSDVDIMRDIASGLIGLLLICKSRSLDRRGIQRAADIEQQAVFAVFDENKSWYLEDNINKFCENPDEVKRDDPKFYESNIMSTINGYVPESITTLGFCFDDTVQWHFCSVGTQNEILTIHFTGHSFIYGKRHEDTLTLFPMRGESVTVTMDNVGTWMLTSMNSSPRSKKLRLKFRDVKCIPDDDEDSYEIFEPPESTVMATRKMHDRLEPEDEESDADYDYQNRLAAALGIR
T4 sequence (P12259 1574-2224 partner limits assumed): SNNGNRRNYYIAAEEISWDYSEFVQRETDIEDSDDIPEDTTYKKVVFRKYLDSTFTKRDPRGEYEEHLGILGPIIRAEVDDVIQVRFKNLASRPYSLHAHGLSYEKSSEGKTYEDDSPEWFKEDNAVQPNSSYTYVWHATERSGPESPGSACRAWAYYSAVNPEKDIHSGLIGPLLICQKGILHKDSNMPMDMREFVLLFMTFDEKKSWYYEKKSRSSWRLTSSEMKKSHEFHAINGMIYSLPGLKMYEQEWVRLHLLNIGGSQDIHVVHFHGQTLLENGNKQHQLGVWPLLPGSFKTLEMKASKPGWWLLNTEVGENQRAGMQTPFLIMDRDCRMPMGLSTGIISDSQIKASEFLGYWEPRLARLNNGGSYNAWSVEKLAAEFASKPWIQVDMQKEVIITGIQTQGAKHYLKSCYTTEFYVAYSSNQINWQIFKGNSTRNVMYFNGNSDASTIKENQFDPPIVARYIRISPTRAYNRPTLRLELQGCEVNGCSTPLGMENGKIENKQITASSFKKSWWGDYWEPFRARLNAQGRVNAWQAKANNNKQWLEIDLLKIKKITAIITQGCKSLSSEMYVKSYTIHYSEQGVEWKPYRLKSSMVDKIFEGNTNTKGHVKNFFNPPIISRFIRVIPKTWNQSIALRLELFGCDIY

| IC50 (human thrombin) | IC50 (human factor Xa [3]) | IC50 (human trypsin) | inhibition at 100 µM [4] | SMILES | concentration that causes 2-fold prolongation of baseline dPT (pooled plasma from dogs) | concentration that causes 5-fold prolongation of baseline dPT (pooled plasma from dogs) | concentration that causes 10-fold prolongation of baseline dPT (pooled plasma from dogs) | concentration that causes 2-fold prolongation of baseline dPT [1] | concentration that causes 5-fold prolongation of baseline dPT [1] | concentration that causes 10-fold prolongation of baseline dPT [1] | concentration that causes 2-fold prolongation of baseline dPT [2] | concentration that causes 5-fold prolongation of baseline dPT [2] | concentration that causes 10-fold prolongation of baseline dPT [2] | also measured |
| --- | --- | --- | --- | --- | --- | --- | --- | --- | --- | --- | --- | --- | --- | --- |
| – | – | – | – | CC(=N)N1CC[C@H](Oc2ccc([C@H](Cc3ccc4ccc(C(=N)N)cc4c3)C(=O)O)cc2)C1 [DX-9065a, reference compound] | 2.5 µM | 51.1 µM | 118.6 μM | 1.4 µM | 21.8 µM | 96.8 μM | 0.06 µM | 0.53 µM | 1.3 μM | – |
| 1780 nM | 108 nM | 782 nM | 31% | C[C@@H]1CCC[C@H](C)N1CCCCCN1C(=O)C(c2cccc(C(=N)N)c2)Sc2ccccc21 (stereo partly drawn) [Example 3, 3-(4-5-[(2R,6S)-2,6-Dimethylhexahydro-1-pyridinyl]pentyl-3-oxo-3,4-dihydro-2H-1,4-benzothiazin-2-yl)-1-benzenecarboximidamide] | – | – | – | – | – | – | – | – | – | – |
| 1390 nM | 3 nM | 750 nM | 37% | C[C@@H]1CCC[C@H](C)N1CCCCCN1C(=O)[C@H](c2cc(C(=N)N)ccc2O)Oc2ccccc21 [Example 6, 3-((2S)-4-5-[(2R,6S)-2,6-Dimethyltetrahydro-1(2H)-pyridinyl]pentyl-3-oxo-3,4-dihydro-2H-1,4-benzoxazin-2-yl)-4-hydroxybenzenecarboximidamide] | – | – | – | – | – | – | – | – | – | Ki (human factor Xa [5]): 0.076 nM |
| 1030 nM | < 1 nM | 380 nM | 29% | C[C@@H]1CCC[C@H](C)N1CCCCCN1C(=O)C(c2cc(C(=N)N)ccc2O)Oc2ccccc21 (stereo partly drawn) [Example 5, 3-(4-5-[(2R,6S)-2,6-Dimethyltetrahydro-1(2H)-pyridinyl]pentyl-3-oxo-3,4-dihydro-2H-1,4-benzoxazin-2-yl)4-hydroxybenzenecarboximidamide] | 0.84 µM | 1.2 µM | 1.81 μM | 0.44 µM | 0.97 µM | 1.86 μM | 0.0069 µM | 0.063 µM | 0.157 μM | IC50 [6]: 0.17 nM |
| – | 7 nM | 474 nM | 30% | C[C@@H]1CCC[C@H](C)N1CCCCCN1C(=O)C(c2cccc(C(=N)N)c2)Oc2ccccc21 (stereo partly drawn) [Example 2, 3-(4-5-[(2R,6S)-2,6-Dimethylhexahydro-1-pyridinyl]pentyl-3-oxo-3,4-dihydro-2H-1,4-benzoxazin-2-yl)-1-benzenecarboximidamide] | – | – | – | – | – | – | – | – | – | net thrombus weight, dose dependence (rabbit; [7]): reduced the net thrombus weight; time to occlusion, dose dependence (rabbit; [7]): dose-dependently prolonged the time to occlusion; ACT (rabbit; all 3 dose groups): only slight increases; animals with no occlusive thrombus formation during the 120-minute test period (rabbit; [8]): 4 out of 5; prolongation of PT (rabbit; [8]): 1.8 fold; prolongation of TT (rabbit; [8]): 1.5 fold; prolongation of aPTT (rabbit; [8]): 5.4 fold; prolongation of bleeding time (rabbit; [8]): 2.5 fold; time to occlusion (TTO) (rabbit; highest dose 90 μg/kg+3 μg/kg/min, bolus via jugular vein + infusion 140 minutes, control 16.8±5.4): 98.2 ± 21.8 min; net thrombus weight (rabbit; highest dose 90 μg/kg+3 μg/kg/min, control 56.4±4.3): 21.3 ± 7.8 mg |
